Drawing on ChEMBL document CHEMBL1772964, “Structural requirements of flavonoids for the adipogenesis of 3T3-L1 cells” (Bioorg Med Chem, 2011), this text covers Activity for 38 compounds.

Series [1] deals with 3T3-L1. Briefly: Induction of adipogenesis in mouse 3T3L1 cells assessed as increase in triglyceride level at 10 uM on day 8 relative to control. The class given is functional.
Series [2] has as its system 3T3-L1. Briefly: Induction of adipogenesis in mouse 3T3L1 cells assessed as increase in triglyceride level at 3 uM on day 8 relative to control. It is filed as functional.
Series [3] concerns 3T3-L1. Briefly: Induction of adipogenesis in mouse 3T3L1 cells assessed as increase in triglyceride level at 30 uM on day 8 relative to control. It is filed as functional.
The subject of series [4] is 3T3-L1. Briefly: Induction of adipogenesis in mouse 3T3L1 cells assessed as increase in triglyceride level at 1 uM on day 8 relative to control. The class given is functional.
For series [5], the system named is 3T3-L1. Briefly: Induction of adipogenesis in mouse 3T3L1 cells assessed as increase in triglyceride level at 0.3 uM on day 8 relative to control. The class given is functional.
For series [6], the system named is 3T3-L1. Briefly: Cytotoxicity in mouse 3T3L1 cells assessed as reduction in triglyceride accumulation at 30 uM. The class given is cell-based. The note with it: 3t3-l1, 30 µM.

With `COc1cc(O)c2c(=O)c(OC)c(-c3ccccc3)oc2c1`, the Activity in the series on 3T3-L1 [1] turned out to be 14.2%; in the series with 3T3-L1 [2], 13.7%; with 3T3-L1 [3], 17.7%; in the series on 3T3-L1 [4], 13.3%.
Take `O=c1cc(-c2ccc(O)c(O)c2)oc2ccccc12`: the Activity was 9.8% in the series with 3T3-L1 [1], 13.8% in the series with 3T3-L1 [2], -21% in the series on 3T3-L1 [3] and 5.9% in the series on 3T3-L1 [4].
Consider `O=c1cc(-c2ccc(O)cc2)oc2cc(O)ccc12`, for which the Activity with 3T3-L1 [1] is on record as -1.5%; in the series on 3T3-L1 [2], -3.9%; with 3T3-L1 [3], -5.7%; in the series on 3T3-L1 [4], -8.1%.
As for `O=c1cc(-c2ccc(O)c(O)c2)oc2cc(O)ccc12`, the Activity is given as 14.8% in the series on 3T3-L1 [1], 9% with 3T3-L1 [2], -1.7% in the series with 3T3-L1 [3] and 4.5% with 3T3-L1 [4].
As for `COc1ccc(-c2cc(=O)c3c(O)cc(OC)cc3o2)cc1`, the Activity in the series on 3T3-L1 [1] was 5.8%; in the series with 3T3-L1 [5], 7.7%; in the series on 3T3-L1 [2], 12.2%; in the series with 3T3-L1 [3], 6.8%; in the series on 3T3-L1 [4] it was 19%.
As to `COc1ccc2c(c1)OC(c1ccc(O)cc1)CC2=O` (centres undefined), the Activity in the series with 3T3-L1 [1] is reported as 2.6%; with 3T3-L1 [2], 2.2%; with 3T3-L1 [3], 13.5%; with 3T3-L1 [4], -1.2%.
Consider `COc1cc(OC)c2c(=O)c(OC)c(-c3ccccc3)oc2c1`, for which the Activity with 3T3-L1 [1] was found to be 13.2%; in the series with 3T3-L1 [2], 10.4%; in the series on 3T3-L1 [3], 6.6%; in the series with 3T3-L1 [4], 9%.
As for `COc1ccc(-c2cc(=O)c3ccc(OC)cc3o2)cc1` [4,7-DIMETHOXYFLAVONE], the Activity came to 4.3% in the series on 3T3-L1 [1], 3.4% in the series with 3T3-L1 [2], 6.3% with 3T3-L1 [3] and 1.2% in the series with 3T3-L1 [4].
For `O=c1cc(-c2ccccc2)oc2cc(O)ccc12` [7-HYDROXYFLAVONE], the Activity with 3T3-L1 [1] is given as 17.1%; with 3T3-L1 [2] it was 13.7%; in the series on 3T3-L1 [3], 5.3%; in the series with 3T3-L1 [4], 12.2%.
The matching figures for `Oc1cc(O)c2c(c1)O[C@H](c1ccc(O)c(O)c1)[C@H](O)C2` [(-)-EPICATECHIN]: -7.2%, 6.1%, -0.6% and 3.7%.
Consider `O=c1cc(-c2ccc(O)cc2)oc2cc(O)cc(O)c12` [APIGENIN], for which the Activity was 7% with 3T3-L1 [1], 4.9% in the series with 3T3-L1 [2], -7.7% with 3T3-L1 [3] and 4.5% with 3T3-L1 [4].
As to `O=c1c(O[C@@H]2O[C@H](CO)[C@@H](O)[C@H](O)[C@H]2O)c(-c2ccc(O)cc2)oc2cc(O)cc(O)c12` [ASTRAGALIN], the Activity in the series on 3T3-L1 [1] is given as 8.8%; with 3T3-L1 [2], 4.7%; with 3T3-L1 [3], 10.2%; in the series with 3T3-L1 [4] it was 2.1%.
Take `COc1cc(O)c2c(=O)c(OC)c(-c3ccc(OC)c(O)c3)oc2c1` [AYANIN]: the Activity was 18.5% in the series on 3T3-L1 [1], 16.3% in the series with 3T3-L1 [2], 0.4% in the series on 3T3-L1 [3] and 2.6% in the series with 3T3-L1 [4].
As for `O=c1cc(-c2ccccc2)oc2cc(O)c(O)c(O)c12` [BAICALEIN], the Activity in the series with 3T3-L1 [1] was -21.8%; in the series with 3T3-L1 [6] it was “Toxic”; in the series on 3T3-L1 [2] it was -7.7%; in the series with 3T3-L1 [3], -37.2%; in the series with 3T3-L1 [4], -5.2%.
`COc1ccc(-c2coc3cc(O)cc(O)c3c2=O)cc1` [BIOCHANIN]: the Activity with 3T3-L1 [1] was 1.2%; in the series with 3T3-L1 [2], 6.1%; with 3T3-L1 [3], -16.5%; in the series with 3T3-L1 [4] it was 2.6%.
Regarding `O=C(/C=C/c1ccc(O)c(O)c1)c1ccc(O)cc1O` [BUTEIN], the Activity with 3T3-L1 [1] is reported as -7.3%; in the series on 3T3-L1 [6], “Toxic”; in the series on 3T3-L1 [2], 17.5%; with 3T3-L1 [3], -80.8%; with 3T3-L1 [4], 14.8%.
For `COc1cc(OC)c2c(=O)cc(-c3ccccc3)oc2c1` [CHRYSIN DIMETHYL ETHER], the Activity is given as 6.3% with 3T3-L1 [1]; “Toxic” in the series on 3T3-L1 [6]; 3.4% in the series with 3T3-L1 [2]; -88.1% with 3T3-L1 [3]; 7.5% with 3T3-L1 [4].
`Oc1cc(O)c2c(c1)O[C@H](c1ccc(O)c(O)c1)[C@@H](O)C2` [CIANIDANOL]: the Activity was 7.9% in the series on 3T3-L1 [1], 6.4% with 3T3-L1 [2], 11.9% with 3T3-L1 [3] and -0.5% in the series with 3T3-L1 [4].
Consider `O=c1c(-c2ccc(O)cc2)coc2cc(O)ccc12` [DAIDZEIN], for which the Activity in the series with 3T3-L1 [1] stood at 8.5%; in the series on 3T3-L1 [2], 6.5%; in the series with 3T3-L1 [3], 13.4%; with 3T3-L1 [4], 2%.
As for `Oc1cc(O)c2c(c1)O[C@H](c1cc(O)c(O)c(O)c1)[C@H](O)C2` [EPIGALLOCATECHIN], the Activity in the series on 3T3-L1 [1] was -10.2%; with 3T3-L1 [2], -3.8%; in the series on 3T3-L1 [3] it was -19.5%; in the series with 3T3-L1 [4], -9.5%.
Turning to `O=C1C[C@@H](c2ccc(O)c(O)c2)Oc2cc(O)cc(O)c21` [ERIODICTYOL], the Activity is -10.3% in the series on 3T3-L1 [1], -5% with 3T3-L1 [2], -10.3% in the series on 3T3-L1 [3] and 1.6% in the series with 3T3-L1 [4].
Take `O=c1c(O)c(-c2ccc(O)c(O)c2)oc2cc(O)ccc12` [FISETIN]: the Activity in the series with 3T3-L1 [1] is -8.8%; in the series with 3T3-L1 [2], -2.4%; with 3T3-L1 [3], -2.7%; with 3T3-L1 [4] it was 4.1%.
On to `O=C1CC(c2ccccc2)Oc2ccccc21` (centres undefined) [FLAVANONE], for which the Activity is 2.5% in the series on 3T3-L1 [1], 5.1% with 3T3-L1 [2], 1% in the series on 3T3-L1 [3] and -1.9% in the series on 3T3-L1 [4].
As to `O=c1cc(-c2ccccc2)oc2ccccc12` [FLAVONE], the Activity in the series on 3T3-L1 [1] was -5.2%; in the series on 3T3-L1 [2] it was -6.8%; in the series with 3T3-L1 [3] it was -10.9%; with 3T3-L1 [4], -2.6%.
Consider `O=c1c(O)c(-c2ccccc2)oc2ccccc12` [FLAVONOL], for which the Activity was -17.6% with 3T3-L1 [1]; “Toxic” in the series with 3T3-L1 [6]; -10% with 3T3-L1 [2]; -31.6% in the series with 3T3-L1 [3]; -12.6% in the series on 3T3-L1 [4].
As to `O=c1c(-c2ccc(O)cc2)coc2cc(O)cc(O)c12` [GENISTEIN], the Activity with 3T3-L1 [1] is listed as -17.6%; in the series with 3T3-L1 [2] it was -4.3%; with 3T3-L1 [3] it was -19.2%; with 3T3-L1 [4], -4.3%.
For the compound `O=c1c(O)c(-c2ccc(O)c(O)c2)oc2c(O)c(O)cc(O)c12` [GOSSYPETIN], the Activity in the series on 3T3-L1 [1] is -6.7%; in the series on 3T3-L1 [2], -2.9%; with 3T3-L1 [3] it was -9.5%; in the series with 3T3-L1 [4], 17.5%.
As to `O=C(/C=C/c1ccc(O)cc1)c1ccc(O)cc1O` [ISOLIQUIRITIGENIN], the Activity in the series on 3T3-L1 [1] was -0.7%; in the series with 3T3-L1 [2], 4%; in the series on 3T3-L1 [3], -33.7%; with 3T3-L1 [4], 2.7%.
With `O=c1c(O[C@@H]2O[C@H](CO)[C@@H](O)[C@H](O)[C@H]2O)c(-c2ccc(O)c(O)c2)oc2cc(O)cc(O)c12` [ISOQUERCETIN], the Activity with 3T3-L1 [1] is listed as -0.2%; in the series with 3T3-L1 [2] it was 0.1%; in the series on 3T3-L1 [3], -2.4%; in the series with 3T3-L1 [4] it was -2.2%.
In the case of `O=c1c(O)c(-c2cc(O)c(O)c(O)c2)oc2cc(O)cc(O)c12` [MYRICETIN], the Activity with 3T3-L1 [1] was -0.7%; in the series on 3T3-L1 [2], 2.7%; in the series with 3T3-L1 [3], 5.6%; in the series with 3T3-L1 [4], 4.3%.
For the compound `COc1ccc(-c2cc(=O)c3c(OC)c(OC)c(OC)c(OC)c3o2)cc1OC` [NOBILETIN], the Activity is given as 10.7% in the series with 3T3-L1 [1]; 14.1% with 3T3-L1 [5]; 12.6% in the series with 3T3-L1 [2]; -6.7% with 3T3-L1 [3]; 15.3% in the series with 3T3-L1 [4].
As to `COc1cc(O)c2c(=O)c(O)c(-c3ccc(OC)c(O)c3)oc2c1` [OMBUINE], the Activity is reported as 4.6% with 3T3-L1 [1], 5.9% with 3T3-L1 [2], 24.7% in the series on 3T3-L1 [3] and -2.1% in the series on 3T3-L1 [4].
In the case of `O=c1c(O)c(-c2ccc(O)c(O)c2)oc2cc(O)cc(O)c12` [QUERCETIN], the Activity in the series with 3T3-L1 [1] turned out to be 3%; in the series on 3T3-L1 [2] it was 5.8%; in the series with 3T3-L1 [3], 3.9%; in the series on 3T3-L1 [4], 7%.
On to `COc1cc(O)c2c(=O)c(OC)c(-c3ccc(OC)c(OC)c3)oc2c1` [RETUSIN], for which the Activity with 3T3-L1 [1] is reported as 21%; in the series with 3T3-L1 [2], 11.2%; in the series on 3T3-L1 [3], 3.8%; in the series on 3T3-L1 [4], 3.8%.
For `COc1cc(O)c2c(=O)c(O)c(-c3ccc(O)c(O)c3)oc2c1` [RHAMNETIN], the Activity with 3T3-L1 [1] was 2.4%; in the series on 3T3-L1 [5], 15.5%; with 3T3-L1 [2], 1.9%; in the series with 3T3-L1 [3], -21.4%; in the series with 3T3-L1 [4], 19%.
On to `COc1cc(O)c2c(=O)cc(-c3ccccc3)oc2c1` [TECHTOCHRYSIN], for which the Activity in the series with 3T3-L1 [1] was 10.4%; in the series on 3T3-L1 [2], 10.7%; in the series on 3T3-L1 [3], 17.5%; with 3T3-L1 [4], 7.4%.
Turning to `COc1cc(OC)c2c(=O)cc(-c3ccc(OC)c(OC)c3)oc2c1` [TETRAMETHYLLUTEOLIN], the Activity is recorded as 7.4% in the series on 3T3-L1 [1], 3.1% in the series with 3T3-L1 [2], -15.3% in the series on 3T3-L1 [3] and 2.6% with 3T3-L1 [4].
Take `COc1c(O)cc(O)c2c(=O)cc(-c3ccccc3)oc12` [WOGONIN]: the Activity in the series on 3T3-L1 [1] came to 19.2%; with 3T3-L1 [2], 9.6%; with 3T3-L1 [3], 16.6%; in the series on 3T3-L1 [4], 7.8%.
